{
  "source": "patent US20170307610A1",
  "about": "“COMPOUNDS THAT BIND DYSTROGLYCAN AND USES THEREOF” (OREGON HEALTH & SCIENCE UNIVERSITY, priority 2014, published 2017)",
  "key": {"E3D1 MECs [1]": {"tested_on": "E3D1 MECs", "assay": "Pulsed time course of Rhod-Ln internalization, flow cytometry", "format": "cell-based, mouse", "protocol": "(§1) To explore the dynamics of laminin internalization, steady-state time course experiments (measuring internalization in the continuous presence of labeled laminin) and pulsed time course experiments were performed. In pulsed time course experiments, the cells were exposed to exogenous Rhod-Ln at 4° C. to prevent internalization, excess unbound Rhod-Ln was washed away, and then cells were returned to 37° C. to allow synchronized internalization and trafficking to proceed. […] Following pulsed and synchronized laminin exposure, Rhod-Ln was again observed to internalize within 1 hour, but reached a maximum at 8 hours, after which the levels of internal laminin declined (FIG. 4A). After 24 hours, internal Rhod-Ln levels declined to ˜37% of the maxima, indicating degradation (MFI: 315±3.5 to 119±11.5). To determine if laminin was degraded using classical degradation pathways, pulsed time course experiments in the presence of leupeptin (lysosome inhibitor) or […] (proteasome inhibitor) were performed.\nLaminin labeling—Laminin-111 (1 mg) (Sigma-Aldrich Corp., St. Louis, Mo., USA) was dialyzed twice overnight against 500 ml of PBS with 10 μM CaCl2. The dialyzed laminin was then reacted with 10 μg NHS-rhodamine, or a 50 fold molar excess of NHS409 CypHer5 (GE) for 2 hr on ice, followed by dialysis twice overnight against 500 ml of PBS with 10 μM CaCl2.\nFlow Cytometry—Cells were plated in 12 well plates at 200,000 cells/well. The following day, media was changed to serum-free media with or without 10 μg/ml rhodamine laminin or 40 μg/ml FITC-dextran (500S-Sigma-Aldrich Corp., St. Louis, Mo., USA). Unless otherwise indicated, cells were incubated 18-24 hrs, washed once with PBS, and cells trypsinized. Cells were washed in 5 ml cold PBS/1 mM EDTA, pelleted, and resuspended in 1 ml PBS/1 mM EDTA. Using a BD FACScan flow cytometer (BD Biosciences, San Jose, Calif., USA), 10,000 cells/well were counted, background fluorescence from the cell counts with no added laminin subtracted and the mean fluorescence intensity values reported. Graphed data are compiled from duplicate wells from each experiment with a minimum of three separate experiments, unless indicated otherwise."}, "E3D1 MECs [2]": {"tested_on": "E3D1 MECs", "assay": "Steady-state laminin internalization, flow cytometry", "format": "cell-based, mouse", "details": "steady-state, continuous Rhod-Ln", "protocol": "Endocytic internalization of laminin was confirmed by multiple methods. Laminin was labeled with the pH-sensitive fluorescent label CypHer-5 (CyPher-Ln) to exclusively image internalized laminin in attached, living cells. The fluorophore CypHer-5 is non fluorescent at pH 7.4 and maximally fluorescent at pH 5.5, permitting fluorescence detection of laminin within intracellular acidic vesicles (pH 4.8-6.0). Following overnight incubation of MECs with CypHer-Ln, live cell imaging detected bright fluorescent vesicles moving rapidly within the cytoplasm (FIG. 3A). Intracellular laminin within the cytoplasm was also independently observed via removal of surface bound laminin followed by confocal imaging. MECs were exposed to 10 μg/ml Rhod-Ln for 18 hrs, trypsinized, washed with PBS/EDTA to remove surface-bound laminin, allowed to re-attach, and stained with the membrane marker FITC-concanavalin A (conA). […] This method of cell treatment permitted a quantitative, flow cytometry-based assay of laminin internalization. In this assay, cells incubated with Rhod-Ln were trypsinized, washed (as in FIG. 3B), and the remaining internal Rhod-Ln fluorescence quantified by flow cytometry. Using this assay, laminin internalization was confirmed in diverse cell types including in primary mammary epithelial cultures, mammary epithelial cell lines (E3D1, MEpG), […] fibroblasts (NIH 3T3 cells), primary astrocytes, and human cancer cell lines (breast and glioma).\nas §1\nLaminin internalization could be mediated by either receptor-dependent or receptor independent mechanisms (e.g. pinocytosis). Steady-state laminin internalization was measured using flow cytometry in the presence of potential inhibitors and compared to internalization of 500S FITC-dextran, a molecule of similar molecular size to laminin known to be endocytosed by receptor-independent mechanisms. The specific inhibitor of dynamin, dynasore (Macia E et al, Dev Cell, 839-850 (2006); incorporated by reference herein), inhibited internalization of laminin by >75% (FIG. 6A). Under hypertonic sucrose, a condition known to inhibit receptor-mediated endocytosis (Heuser J E and Anderson R G, J Cell Biol 108, 389-400 (1989); incorporated by reference herein) laminin internalization was reduced by 65% (FIG. 6A). Addition of heparin, a molecule known to bind the laminin LG4-5 domain (Harrison D et al, J Biol Chem 282, 11573-11581 (2007); incorporated by reference herein), decreased laminin internalization by 69% relative to controls (FIG. 6A). […] Specifically, under steady state, laminin internalization was nearly linear throughout the 24 hour time course, whereas dextran internalization plateaued after 16 hrs.\nFlow Cytometry—Cells were plated in 12 well plates at 200,000 cells/well. The following day, media was changed to serum-free media with or without 10 μg/ml rhodamine laminin or 40 μg/ml FITC-dextran (500S-Sigma-Aldrich Corp., St. Louis, Mo., USA). […]"}},
  "data": [
    {"substance": "Rhod-Ln: laminin-111 labeled with NHS-rhodamine; dystroglycan binding reagent", "values": [
      {"measurement": "time at which Rhod-Ln was observed to internalize", "setting": "E3D1 MECs [1]; pulsed and synchronized laminin exposure, 4° C. then 37° C.", "value": "≤ 1", "unit": "h"},
      {"measurement": "time of maximum internal laminin", "setting": "E3D1 MECs [1]; pulsed laminin exposure", "value": 8, "unit": "h"},
      {"measurement": "MFI of internal Rhod-Ln after 24 hours", "setting": "E3D1 MECs [1]; pulsed, 24 hours", "value": "119±11.5"},
      {"measurement": "internal Rhod-Ln level relative to the maxima", "setting": "E3D1 MECs [1]; pulsed, after 24 hours", "value": "~37", "unit": "%"},
      {"measurement": "MFI of internal Rhod-Ln at the maximum", "setting": "E3D1 MECs [1]; pulsed, maximum (8 hours)", "value": "315±3.5"},
      {"measurement": "time at which internalized laminin was measurable", "setting": "E3D1 MECs [2]", "value": "≤ 1", "unit": "h"},
      {"measurement": "time to plateau of laminin internalization", "setting": "E3D1 MECs [2]", "value": "> 30", "unit": "h"}
    ]}
  ]
}
